Experimental data as given in US7378375B1, “Substituted pyridine herbicides” (Syngenta Crop Protection, Inc., priority 2000, dated 2008).

Assays:
[1] = tested on: Monocotyledonous and dicotyledonous test plants; experiment: Herbicidal action before emergence of the plants (pre-emergence action), greenhouse pot test, 9-level rating after 4 weeks; type: in vivo; settings: 250 g/ha, rated after 4 weeks, 9-level scale
Outline: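 Compounds applied pre-emergence as a spray (500 l water/ha) of aqueous suspension or emulsion onto soil immediately after sowing mono- and dicot species in pots. Greenhouse-grown; damage rated after 4 weeks on a 9-level scale (1=complete damage, 9=no effect).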

[2] = tested on: Monocotyledonous and dicotyledonous test plants; experiment: Post-emergence herbicidal action, greenhouse pot test, sprayed at the 2- to 3-leaf stage, 9-level rating after 2 to 3 weeks; type: in vivo; settings: 250 g/ha, rated after 2 to 3 weeks, 9-level scale
Outline: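 Plants grown in standard soil in pots; test substances sprayed at the 2- to 3-leaf stage at optimum dosage (500 l water/ha) as aqueous suspension or emulsion from formulated concentrates. Plants then kept in the greenhouse under optimum conditions; rated after 2 to 3 weeks on a 9-level scale (1=complete damage, 9=no effect).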

SMILES | Pre-emergence action rating, Abutilon [1] | Pre-emergence action rating, Amaranthus [1] | Pre-emergence action rating, Chenop. [1] | Pre-emergence action rating, Digitaria [1] | Pre-emergence action rating, Echino. [1] | Pre-emergence action rating, Panicum [1] | Post-emergence action rating, Abutilon [2] | Post-emergence action rating, Amaranth [2] | Post-emergence action rating, Chenop. [2] | Post-emergence action rating, Digitaria [2] | Post-emergence action rating, Echino. [2] | Post-emergence action rating, Ipopur. [2] | Post-emergence action rating, Panicum [2] | Post-emergence action rating, Xanth. [2]
CCCCCCCC(=O)OCc1nc(C(F)(F)F)ccc1C(=O)C1=C(O)C2CCC(C2)C1=O (stereo not drawn) [A843-B52] | 1 | 1 | 1 | 2 | 2 | 1 | 3 | 3 | 1 | 3 | 3 | 6 | 2 | 3
O=C(OCc1nc(C(F)(F)F)ccc1C(=O)C1=C(O)C2CCC(C2)C1=O)c1ccccc1 (stereo not drawn) [A844-B52] | 1 | 1 | 1 | 2 | 2 | 1 | 3 | 3 | 1 | 3 | 4 | 3 | 2 | 3
O=C(C1=C(O)C2CCC(C2)C1=O)c1ccc(C(F)(F)F)nc1COCCOCC(F)(F)F (stereo not drawn) [A845-B52] | 1 | 1 | 1 | 1 | 1 | 1 | 2 | 2 | 1 | 2 | 2 | 2 | 2 | 2
COCCCOCc1nc(C(F)(F)F)ccc1C(=O)C1=C(O)C2CCC(C2)C1=O (stereo not drawn) [A846-B52] | 2 | 1 | 1 | 1 | 1 | 1 | 2 | 2 | 2 | 2 | 2 | 1 | 1 | 2
O=C(C1=C(O)C2CCC(C2)C1=O)c1ccc(C(F)(F)F)nc1COCCCO (stereo not drawn) [A847-B52] | 4 | 1 | 4 | 3 | 2 | 1 | 2 | 3 | 1 | 2 | 1 | 4 | 1 | 2
O=C(C1=C(O)C2CCC(C2)C1=O)c1ccc(C(F)(F)F)nc1COCC1CCCO1 (stereo not drawn) [A848-B52] | 7 | 1 | 1 | 1 | 1 | 1 | 2 | 1 | 1 | 2 | 2 | 2 | 2 | 2
